Reference: ChEMBL document CHEMBL3627617, “Investigation of new 2-aryl substituted Benzothiopyrano[4,3-d]pyrimidines as kinase inhibitors targeting vascular endothelial growth factor receptor 2” (Eur J Med Chem, 2015)

Assays:
HUVEC = experiment: Antiproliferative activity against human HUVEC cells assessed as reduction in cell viability after 72 hrs by trypan blue assay; type: functional
A-431 = experiment: Antiproliferative activity against human A431 cells assessed as cell viability after 72 hrs by trypan blue assay; type: functional; conditions: A-431, 72 h
[1] = molecular target: Epidermal growth factor receptor (Homo sapiens, UniProt P00533)
HeLa = experiment: Antiproliferative activity against human HeLa cells assessed as cell viability after 72 hrs by trypan blue assay; type: functional
MSTO-211H = experiment: Antiproliferative activity against human MSTO-211H cells assessed as cell viability after 72 hrs by trypan blue assay; type: functional
[2] = molecular target: Vascular endothelial growth factor receptor 2 (Homo sapiens, UniProt P35968); experiment: Inhibition of human KDR incubated for 50 mins by omnia tyr peptide 8 substrate based fluorescence assay
HL-60 = experiment: Antiproliferative activity against human HL60 cells assessed as growth inhibition; type: functional
Aorta [3] = experiment: Anti-angiogenic activity in rat aortic explant assessed as microvessel sprouting inhibition at 100 nM incubated for 7 days by rat aortic ring assay; type: functional; conditions: 168 h
Aorta [4] = experiment: Anti-angiogenic activity in rat aortic explant assessed as microvessel sprouting inhibition at 10 uM incubated for 7 days by rat aortic ring assay; type: functional; conditions: 168 h
Aorta [5] = experiment: Anti-angiogenic activity in rat aortic explant assessed as microvessel sprouting inhibition at 5 uM incubated for 7 days by rat aortic ring assay; type: functional; conditions: 168 h
Aorta [6] = experiment: Anti-angiogenic activity in rat aortic explant assessed as microvessel sprouting inhibition at 1 uM incubated for 7 days by rat aortic ring assay; type: functional; conditions: 168 h
[7] = molecular target: Dual specificity mitogen-activated protein kinase kinase 1 (Homo sapiens) (UniProt Q02750); experiment: Inhibition of human MEK1 at 10 uM by kinase inhibition assay
[8] = molecular target: RAC-alpha serine/threonine-protein kinase (Homo sapiens) (UniProt P31749); experiment: Inhibition of human Akt1 at 10 uM by kinase inhibition assay
[9] = molecular target: Proto-oncogene tyrosine-protein kinase Src (Homo sapiens) (UniProt P12931); experiment: Inhibition of human Src kinase at 10 uM by kinase inhibition assay
[10] = molecular target: RAF proto-oncogene serine/threonine-protein kinase (Homo sapiens) (UniProt P04049); experiment: Inhibition of human RAF1 at 10 uM by kinase inhibition assay
[11] = molecular target: Rho-associated protein kinase 1 (Homo sapiens) (UniProt Q13464); experiment: Inhibition of human ROCK1 at 10 uM by kinase inhibition assay
[12] = molecular target: Mitogen-activated protein kinase 3 (Homo sapiens) (UniProt P27361); experiment: Inhibition of human ERK1 at 10 uM by kinase inhibition assay
[13] = molecular target: T1, Aurora kinase A (Homo sapiens) (UniProt O14965); experiment: Inhibition of human AurA kinase at 10 uM by kinase inhibition assay
T1 sequence (whole entry): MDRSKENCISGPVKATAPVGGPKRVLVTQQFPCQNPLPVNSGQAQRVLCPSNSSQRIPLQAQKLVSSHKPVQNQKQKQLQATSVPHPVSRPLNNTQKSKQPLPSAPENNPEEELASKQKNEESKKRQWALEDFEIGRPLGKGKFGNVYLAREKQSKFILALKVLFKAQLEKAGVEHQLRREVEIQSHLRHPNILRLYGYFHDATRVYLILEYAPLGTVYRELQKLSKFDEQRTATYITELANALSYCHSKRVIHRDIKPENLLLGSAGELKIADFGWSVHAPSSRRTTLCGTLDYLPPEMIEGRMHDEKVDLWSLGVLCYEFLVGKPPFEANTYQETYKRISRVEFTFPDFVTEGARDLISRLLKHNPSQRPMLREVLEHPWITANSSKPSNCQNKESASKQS

[14] = molecular target: Focal adhesion kinase 1 (Homo sapiens) (UniProt Q05397); experiment: Inhibition of human FAK at 10 uM by kinase inhibition assay
[15] = molecular target: Platelet-derived growth factor receptor beta (Homo sapiens) (UniProt P09619); experiment: Inhibition of human PDGFRbeta at 10 uM by kinase inhibition assay
[16] = molecular target: Cyclin-dependent kinase 1 (Homo sapiens) (UniProt P06493); experiment: Inhibition of human CDK1 at 10 uM by kinase inhibition assay
Sequence of Cyclin-dependent kinase 1 (Homo sapiens) (P06493 whole entry, looked up): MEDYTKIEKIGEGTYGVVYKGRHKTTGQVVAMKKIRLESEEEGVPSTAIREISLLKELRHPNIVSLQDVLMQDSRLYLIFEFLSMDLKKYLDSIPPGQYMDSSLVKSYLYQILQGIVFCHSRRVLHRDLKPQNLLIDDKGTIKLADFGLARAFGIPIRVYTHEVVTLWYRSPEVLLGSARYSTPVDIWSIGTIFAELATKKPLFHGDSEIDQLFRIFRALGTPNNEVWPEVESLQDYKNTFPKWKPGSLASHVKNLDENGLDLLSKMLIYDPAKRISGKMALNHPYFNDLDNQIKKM

Sequence of Platelet-derived growth factor receptor beta (Homo sapiens) (P09619 whole entry): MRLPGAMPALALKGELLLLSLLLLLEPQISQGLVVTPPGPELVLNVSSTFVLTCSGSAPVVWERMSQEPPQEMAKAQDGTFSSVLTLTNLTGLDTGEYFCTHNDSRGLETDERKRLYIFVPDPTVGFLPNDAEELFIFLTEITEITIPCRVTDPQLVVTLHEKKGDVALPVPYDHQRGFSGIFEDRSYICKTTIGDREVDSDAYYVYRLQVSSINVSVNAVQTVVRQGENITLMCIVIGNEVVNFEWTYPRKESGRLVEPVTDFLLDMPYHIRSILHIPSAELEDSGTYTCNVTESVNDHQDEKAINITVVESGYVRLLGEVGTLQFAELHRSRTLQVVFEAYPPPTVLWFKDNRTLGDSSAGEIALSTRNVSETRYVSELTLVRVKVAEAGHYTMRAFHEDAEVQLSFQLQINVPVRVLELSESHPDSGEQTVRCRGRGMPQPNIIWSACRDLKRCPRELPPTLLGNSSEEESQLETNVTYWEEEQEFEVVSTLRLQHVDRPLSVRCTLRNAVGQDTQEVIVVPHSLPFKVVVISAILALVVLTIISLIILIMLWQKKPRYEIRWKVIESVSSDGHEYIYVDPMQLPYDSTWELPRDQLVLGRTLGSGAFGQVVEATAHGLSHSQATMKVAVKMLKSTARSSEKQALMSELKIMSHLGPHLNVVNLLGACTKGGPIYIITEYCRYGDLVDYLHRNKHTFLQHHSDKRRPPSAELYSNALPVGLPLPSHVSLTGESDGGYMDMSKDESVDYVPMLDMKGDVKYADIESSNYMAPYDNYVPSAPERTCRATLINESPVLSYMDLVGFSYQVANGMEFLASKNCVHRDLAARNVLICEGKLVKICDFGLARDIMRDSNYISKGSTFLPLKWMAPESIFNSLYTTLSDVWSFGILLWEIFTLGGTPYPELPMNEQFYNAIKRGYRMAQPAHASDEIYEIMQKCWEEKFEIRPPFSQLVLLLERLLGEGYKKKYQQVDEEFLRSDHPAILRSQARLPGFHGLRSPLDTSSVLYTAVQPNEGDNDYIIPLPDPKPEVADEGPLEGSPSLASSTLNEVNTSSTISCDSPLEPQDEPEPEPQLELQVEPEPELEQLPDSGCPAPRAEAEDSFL
Sequence of Mitogen-activated protein kinase 3 (Homo sapiens) (P27361 whole entry): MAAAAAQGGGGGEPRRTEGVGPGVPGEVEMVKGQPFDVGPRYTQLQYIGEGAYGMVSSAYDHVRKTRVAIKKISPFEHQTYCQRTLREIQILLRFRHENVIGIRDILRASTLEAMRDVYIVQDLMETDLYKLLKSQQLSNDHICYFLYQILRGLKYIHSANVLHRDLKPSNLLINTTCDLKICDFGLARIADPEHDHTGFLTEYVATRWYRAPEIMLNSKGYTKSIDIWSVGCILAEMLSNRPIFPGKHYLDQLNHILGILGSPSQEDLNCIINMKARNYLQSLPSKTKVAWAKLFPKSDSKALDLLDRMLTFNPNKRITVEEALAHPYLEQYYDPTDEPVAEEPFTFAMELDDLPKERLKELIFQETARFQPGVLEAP
Sequence of Focal adhesion kinase 1 (Homo sapiens) (Q05397 2-1052 limits assumed): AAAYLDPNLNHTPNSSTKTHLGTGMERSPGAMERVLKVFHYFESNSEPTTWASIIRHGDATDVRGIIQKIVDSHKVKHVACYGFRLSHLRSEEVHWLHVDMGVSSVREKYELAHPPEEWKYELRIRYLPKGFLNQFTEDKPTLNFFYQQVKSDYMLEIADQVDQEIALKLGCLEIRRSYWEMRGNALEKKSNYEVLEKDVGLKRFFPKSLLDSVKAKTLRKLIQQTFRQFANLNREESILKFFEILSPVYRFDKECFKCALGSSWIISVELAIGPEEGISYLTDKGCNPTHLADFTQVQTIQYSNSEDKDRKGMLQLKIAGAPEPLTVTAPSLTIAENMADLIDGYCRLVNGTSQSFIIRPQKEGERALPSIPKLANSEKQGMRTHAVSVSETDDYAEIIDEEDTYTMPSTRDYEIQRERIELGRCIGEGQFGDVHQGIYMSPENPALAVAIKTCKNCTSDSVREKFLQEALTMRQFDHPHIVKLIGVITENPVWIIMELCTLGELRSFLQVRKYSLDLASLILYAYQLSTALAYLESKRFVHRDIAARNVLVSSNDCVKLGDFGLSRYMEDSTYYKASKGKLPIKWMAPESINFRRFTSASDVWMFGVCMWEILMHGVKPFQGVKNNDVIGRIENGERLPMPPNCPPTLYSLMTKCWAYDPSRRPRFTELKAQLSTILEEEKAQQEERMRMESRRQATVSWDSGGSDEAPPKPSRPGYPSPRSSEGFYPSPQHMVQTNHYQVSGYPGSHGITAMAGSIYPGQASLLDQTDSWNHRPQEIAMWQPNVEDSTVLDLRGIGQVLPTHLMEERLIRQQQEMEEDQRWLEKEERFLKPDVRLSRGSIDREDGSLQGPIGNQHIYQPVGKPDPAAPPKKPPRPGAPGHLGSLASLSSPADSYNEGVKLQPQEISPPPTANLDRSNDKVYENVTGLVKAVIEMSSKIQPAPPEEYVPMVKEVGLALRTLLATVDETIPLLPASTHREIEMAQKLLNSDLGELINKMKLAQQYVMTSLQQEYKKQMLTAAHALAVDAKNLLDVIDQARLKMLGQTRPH
Sequence of RAC-alpha serine/threonine-protein kinase (Homo sapiens) (P31749 whole entry): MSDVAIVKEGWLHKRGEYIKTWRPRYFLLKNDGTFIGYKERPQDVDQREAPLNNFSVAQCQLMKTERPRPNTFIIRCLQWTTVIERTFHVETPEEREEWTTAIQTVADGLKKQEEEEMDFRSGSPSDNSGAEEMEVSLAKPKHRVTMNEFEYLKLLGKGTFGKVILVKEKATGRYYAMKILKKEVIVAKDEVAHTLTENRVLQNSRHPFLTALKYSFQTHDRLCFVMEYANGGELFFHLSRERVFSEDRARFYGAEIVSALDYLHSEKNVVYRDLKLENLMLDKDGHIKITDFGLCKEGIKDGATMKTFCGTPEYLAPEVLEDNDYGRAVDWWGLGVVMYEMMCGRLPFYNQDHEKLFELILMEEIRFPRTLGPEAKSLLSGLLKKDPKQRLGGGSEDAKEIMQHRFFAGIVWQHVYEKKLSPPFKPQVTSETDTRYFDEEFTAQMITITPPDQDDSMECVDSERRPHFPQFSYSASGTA
Sequence of Vascular endothelial growth factor receptor 2 (P35968 whole entry): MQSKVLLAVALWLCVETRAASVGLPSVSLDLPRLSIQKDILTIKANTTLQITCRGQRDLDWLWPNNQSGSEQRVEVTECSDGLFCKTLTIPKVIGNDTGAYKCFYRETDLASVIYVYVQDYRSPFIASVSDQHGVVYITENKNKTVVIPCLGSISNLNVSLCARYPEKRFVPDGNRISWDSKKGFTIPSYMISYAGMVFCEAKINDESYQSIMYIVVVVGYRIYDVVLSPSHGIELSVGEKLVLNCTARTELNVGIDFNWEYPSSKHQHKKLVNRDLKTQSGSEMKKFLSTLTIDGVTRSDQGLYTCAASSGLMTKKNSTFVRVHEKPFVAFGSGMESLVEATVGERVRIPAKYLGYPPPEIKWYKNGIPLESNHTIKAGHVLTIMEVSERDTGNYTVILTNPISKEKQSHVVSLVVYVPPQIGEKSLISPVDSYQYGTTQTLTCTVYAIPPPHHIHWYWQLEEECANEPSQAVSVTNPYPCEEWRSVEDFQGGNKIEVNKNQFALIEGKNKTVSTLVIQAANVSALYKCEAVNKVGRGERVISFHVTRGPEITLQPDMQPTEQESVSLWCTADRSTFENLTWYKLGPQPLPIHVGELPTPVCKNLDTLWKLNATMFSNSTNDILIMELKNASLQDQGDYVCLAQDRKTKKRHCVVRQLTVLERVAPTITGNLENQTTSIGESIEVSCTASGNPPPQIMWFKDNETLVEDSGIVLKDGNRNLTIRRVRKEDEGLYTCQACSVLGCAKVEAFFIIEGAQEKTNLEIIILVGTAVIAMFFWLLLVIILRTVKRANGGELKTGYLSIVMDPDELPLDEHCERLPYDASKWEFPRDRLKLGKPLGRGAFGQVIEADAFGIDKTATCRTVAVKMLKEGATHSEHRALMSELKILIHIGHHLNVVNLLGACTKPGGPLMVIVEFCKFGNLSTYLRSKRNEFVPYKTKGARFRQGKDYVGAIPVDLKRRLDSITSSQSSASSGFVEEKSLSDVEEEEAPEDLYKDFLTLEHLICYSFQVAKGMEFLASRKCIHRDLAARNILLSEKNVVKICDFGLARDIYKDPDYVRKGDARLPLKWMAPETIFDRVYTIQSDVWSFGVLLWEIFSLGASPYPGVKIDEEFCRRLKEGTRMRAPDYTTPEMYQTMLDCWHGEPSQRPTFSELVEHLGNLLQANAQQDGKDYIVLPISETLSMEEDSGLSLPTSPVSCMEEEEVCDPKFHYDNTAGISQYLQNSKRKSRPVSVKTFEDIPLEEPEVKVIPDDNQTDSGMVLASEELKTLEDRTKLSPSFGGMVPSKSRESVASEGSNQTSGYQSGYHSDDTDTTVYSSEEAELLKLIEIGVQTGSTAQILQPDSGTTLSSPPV
Sequence of Dual specificity mitogen-activated protein kinase kinase 1 (Homo sapiens) (Q02750 whole entry): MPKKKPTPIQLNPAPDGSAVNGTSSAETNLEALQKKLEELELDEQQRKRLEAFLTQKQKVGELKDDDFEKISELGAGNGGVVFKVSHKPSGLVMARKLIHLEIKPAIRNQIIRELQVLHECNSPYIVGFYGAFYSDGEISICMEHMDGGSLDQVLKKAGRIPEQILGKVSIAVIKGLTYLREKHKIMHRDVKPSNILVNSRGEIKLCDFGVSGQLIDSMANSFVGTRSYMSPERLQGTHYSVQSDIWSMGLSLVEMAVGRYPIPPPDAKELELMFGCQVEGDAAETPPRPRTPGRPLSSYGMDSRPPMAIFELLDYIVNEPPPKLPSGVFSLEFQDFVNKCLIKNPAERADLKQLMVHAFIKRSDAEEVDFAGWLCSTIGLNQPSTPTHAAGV

| Structure (SMILES) | GI50 (A-431) | GI50 (HeLa) | GI50 (HUVEC) | GI50 (MSTO-211H) | other results |
| --- | --- | --- | --- | --- | --- |
| COc1ccc2c(c1)SCc1ncc(-c3ccccc3)nc1-2 | – | – | – | – | GI50 (HL-60): 7.15 µM |
| Cc1cc(C)c(/C=C2\C(=O)Nc3ccccc32)[nH]1 [SEMAXANIB] | – | – | 13.6 µM | – | inhibition at 0.1 µM (Aorta [3]): -12%; inhibition at 10 µM (Aorta [4]): 100%; inhibition at 5 µM (Aorta [5]): 72%; inhibition at 1 µM (Aorta [6]): -2% |
| Clc1ccc2c(c1)SCc1cnc(-c3ccccc3)nc1-2 | > 20 µM | > 20 µM | 2.3 µM | > 20 µM | – |
| COc1ccc2c(c1)SCc1cnc(Nc3ccccc3)nc1-2 | > 20 µM | 20.1 µM | 4.3 µM | 15 µM | IC50 [2]: > 50 µM |
| COc1ccc(-c2ncc3c(n2)-c2ccc(Cl)cc2SC3)cc1 | > 20 µM | > 20 µM | 4.7 µM | > 20 µM | – |
| COc1ccc2c(c1)SCc1cnc(-c3ccc(Cl)cc3)nc1-2 | > 20 µM | > 20 µM | > 20 µM | > 20 µM | – |
| COc1ccc(-c2ncc3c(n2)-c2ccccc2SC3)cc1 | > 20 µM | > 20 µM | 12 µM | > 20 µM | – |
| Clc1ccc(CNc2ncc3c(n2)-c2ccc(Cl)cc2SC3)cc1 | > 20 µM | > 20 µM | 17 µM | > 20 µM | – |
| c1ccc(CNc2ncc3c(n2)-c2ccccc2SC3)cc1 | > 20 µM | > 20 µM | > 20 µM | > 20 µM | – |
| Clc1ccc(-c2ncc3c(n2)-c2ccc(Cl)cc2SC3)cc1 | > 20 µM | > 20 µM | 15.3 µM | > 20 µM | – |
| COc1ccc2c(c1)SCc1cnc(NCc3ccccc3)nc1-2 | > 20 µM | > 20 µM | > 20 µM | > 20 µM | – |
| COc1ccc(-c2ncc3c(n2)-c2ccc(OC)cc2SC3)cc1 | > 20 µM | > 20 µM | 4.8 µM | > 20 µM | – |
| COc1ccc(CNc2ncc3c(n2)-c2ccccc2SC3)cc1 | > 20 µM | > 20 µM | > 20 µM | > 20 µM | – |
| Clc1ccc(Nc2ncc3c(n2)-c2ccccc2SC3)cc1 | > 20 µM | 15.6 µM | 7.3 µM | 11.5 µM | IC50 [2]: > 50 µM |
| COc1ccc2c(c1)SCc1cnc(Nc3ccc(Cl)cc3)nc1-2 | > 20 µM | > 20 µM | > 20 µM | > 20 µM | IC50 [2]: > 50 µM |

Second part, led by results:

| GI50 (A-431) | GI50 (HeLa) | Structure (SMILES) | GI50 (HUVEC) | GI50 (MSTO-211H) | other results |
| --- | --- | --- | --- | --- | --- |
| 5.8 µM | 2.1 µM | COc1ccc(Nc2ncc3c(n2)-c2ccc(Cl)cc2SC3)cc1 | 16.4 µM | > 20 µM | IC50 [1]: 21.6 µM; IC50 [2]: > 50 µM |
| > 20 µM | > 20 µM | Clc1ccc(CNc2ncc3c(n2)-c2ccccc2SC3)cc1 | 12.3 µM | > 20 µM | – |
| > 20 µM | > 20 µM | COc1ccc(CNc2ncc3c(n2)-c2ccc(OC)cc2SC3)cc1 | > 20 µM | > 20 µM | – |
| > 20 µM | > 20 µM | Clc1ccc2c(c1)SCc1cnc(NCc3ccccc3)nc1-2 | 15.1 µM | > 20 µM | – |
| > 20 µM | > 20 µM | COc1ccc2c(c1)SCc1cnc(NCc3ccc(Cl)cc3)nc1-2 | > 20 µM | > 20 µM | – |
| > 20 µM | > 20 µM | COc1ccc(CNc2ncc3c(n2)-c2ccc(Cl)cc2SC3)cc1 | 12 µM | > 20 µM | – |
| > 20 µM | 10.2 µM | c1ccc(Nc2ncc3c(n2)-c2ccccc2SC3)cc1 | 2.4 µM | 11.7 µM | IC50 [2]: 8.2 µM |
| > 20 µM | > 20 µM | Clc1ccc2c(c1)SCc1cnc(Nc3ccccc3)nc1-2 | > 20 µM | > 20 µM | IC50 [2]: > 50 µM |
| > 20 µM | > 20 µM | Clc1ccc(-c2ncc3c(n2)-c2ccccc2SC3)cc1 | 11.3 µM | > 20 µM | – |
| > 20 µM | > 20 µM | c1ccc(-c2ncc3c(n2)-c2ccccc2SC3)cc1 | 4 µM | > 20 µM | – |
| 0.96 µM | 0.7 µM | COc1ccc(Nc2ncc3c(n2)-c2ccccc2SC3)cc1 | 0.45 µM | 1.08 µM | inhibition [7]: 21.6%; inhibition at 0.1 µM (Aorta [3]): -8%; inhibition [8]: 1.4%; inhibition [9]: 12%; inhibition [10]: 4.1%; inhibition [11]: -0.4%; inhibition [12]: -1.8%; inhibition at 10 µM (Aorta [4]): 96%; inhibition at 5 µM (Aorta [5]): 95%; inhibition [13]: 71.7%; inhibition [14]: 47.3%; inhibition [15]: 42%; inhibition at 1 µM (Aorta [6]): 9%; inhibition [16]: 84.8% |
| 0.96 µM | 0.83 µM | COc1ccc(Nc2ncc3c(n2)-c2ccc(OC)cc2SC3)cc1 | 0.74 µM | 1.08 µM | IC50 [2]: 17.5 µM |
| 2.2 µM | 1.5 µM | Clc1ccc(Nc2ncc3c(n2)-c2ccc(Cl)cc2SC3)cc1 | 0.35 µM | 1.6 µM | inhibition [7]: 5.9%; inhibition at 0.1 µM (Aorta [3]): -0.5%; inhibition [8]: 3%; inhibition [9]: 8.8%; IC50 [1]: 45.7 µM; inhibition [10]: -1.5%; inhibition [11]: -5.6%; inhibition [12]: -4.3%; inhibition at 10 µM (Aorta [4]): 98%; inhibition at 5 µM (Aorta [5]): 88%; inhibition [13]: 0%; IC50 [2]: 5.6 µM; inhibition [14]: -0.9%; inhibition [15]: 2.5%; inhibition at 1 µM (Aorta [6]): 15%; inhibition [16]: -3.2% |
| 6.5 µM | > 20 µM | COc1ccc2c(c1)SCc1cnc(-c3ccccc3)nc1-2 | 2.9 µM | 11.9 µM | inhibition [7]: 14.6%; inhibition [8]: -4%; inhibition [9]: 0.3%; IC50 [1]: 4.72 µM; inhibition [10]: 2.6%; inhibition [11]: -6.3%; inhibition [12]: -1.7%; inhibition [13]: -2.2%; inhibition [14]: 11.6%; inhibition [15]: -6%; inhibition [16]: -4.2% |
